Assay results as given in ChEMBL document CHEMBL1201862, “PubChem BioAssay data set” (2004).
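Values below derive from 48-hour exposures of cells grown in 96-well plates, with endpoints linearly interpolated between the two concentrations bracketing the appropriate inhibition level. GI50 is the concentration that inhibits growth by half.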 Active and inactive are the calls of the source. Cut-off read from the data, not from the text of the source: active = GI50 up to about 1.1 µM and inactive = higher.

Assays:
Assay in all cases: NCI tumour cell line growth inhibition, 48 h
[1] = tested on: KM-20L2
[2] = tested on: OVCAR-4
[3] = tested on: DMS-114
[4] = tested on: CCRF-CEM
[5] = tested on: SF-268
[6] = tested on: 786-0
[7] = tested on: OVCAR-5
[8] = tested on: M19-MEL
[9] = tested on: OVCAR-3
[10] = tested on: SN12C
[11] = tested on: DLD-1
[12] = tested on: IGROV-1
[13] = tested on: SF-539
[14] = tested on: OVCAR-8
[15] = tested on: NCI-H226
[16] = tested on: HL-60
[17] = tested on: CAKI-1
[18] = tested on: HCT-15
[19] = tested on: SNB-75
[20] = tested on: HOP-92
[21] = tested on: A498
[22] = tested on: XF498
[23] = tested on: A549
[24] = tested on: RXF 393
[25] = tested on: SK-MEL-28
[26] = tested on: NCI-H460
[27] = tested on: UO-31
[28] = tested on: SW-620
[29] = tested on: ACHN
[30] = tested on: LOX IMVI
[31] = tested on: HCT-116
[32] = tested on: MOLT-4
[33] = tested on: SK-OV-3
[34] = tested on: SF-295
[35] = tested on: DMS-273
[36] = tested on: SNB-19
[37] = tested on: SR
[38] = tested on: COLO 205
[39] = tested on: Malme-3M
[40] = tested on: EKVX
[41] = tested on: NCI-H23
[42] = tested on: TK-10
[43] = tested on: HOP-18
[44] = tested on: U-251
[45] = tested on: SK-MEL-2
[46] = tested on: SK-MEL-5
[47] = tested on: HT-29
[48] = tested on: K562
[49] = tested on: RPMI-8226
[50] = tested on: UACC-257
[51] = tested on: UACC-62
[52] = tested on: SNB-78
[53] = tested on: NCI-H522
[54] = tested on: KM12
[55] = tested on: M14
[56] = tested on: LXFL 529
[57] = tested on: HOP-62
[58] = tested on: HCC 2998
[59] = tested on: RXF 631
[60] = tested on: NCI/ADR-RES
[61] = tested on: BT-549
[62] = tested on: DU-145
[63] = tested on: MDA-MB-435
[64] = tested on: MDA-N
[65] = tested on: MDA-MB-231
[66] = tested on: T47D
[67] = tested on: PC-3
[68] = tested on: MCF7
[69] = tested on: Hs-578T

Measured: GI50

O=C(N[C@@H]1C=CCC[C@@H]1c1ccccc1)OCc1ccccc1
inactive: [1] 20 µM | [2] 18.6 µM | [3] 21.7 µM | [4] 16.4 µM | [5] 25 µM | [6] 18.7 µM | [7] 17.8 µM | [8] 21.5 µM | [9] 16.8 µM | [10] 16.9 µM | [11] 23.7 µM | [12] 24.2 µM | [13] 18.9 µM | [14] 20.1 µM | [15] 19 µM | [16] 11.6 µM | [17] 12.2 µM | [19] 19.6 µM | [20] 16.5 µM | [21] 19.1 µM | [22] 19 µM | [23] 25.6 µM | [24] 20.3 µM | [25] 21.9 µM | [26] 17.9 µM | [27] 18.1 µM | [28] 22.9 µM | [29] 24 µM | [30] 15.2 µM | [31] 18.1 µM | [32] 13.1 µM | [33] 30.4 µM | [34] 20.4 µM | [35] 16.4 µM | [36] 32.7 µM | [37] 15.1 µM | [38] 18.5 µM | [39] 19.3 µM | [40] 23.2 µM | [41] 22.8 µM | [42] 15.3 µM | [43] 19.2 µM | [44] 17.5 µM | [45] 16.3 µM | [46] 17.9 µM | [47] 23.7 µM | [48] 23.7 µM | [49] 18 µM | [50] 17.5 µM | [51] 14.1 µM | [52] 32.5 µM | [53] 14.8 µM | [54] 17.5 µM | [55] 17.9 µM | [56] 18.8 µM | [57] 18.5 µM | [58] 20.6 µM
17.9 µM: [18]

COc1cc(/C=C(\NC(=O)c2ccccc2)c2nc3cncnc3[nH]2)cc(OC)c1OC
inactive: [1] > 100 µM | [2] > 100 µM | [4] > 100 µM | [5] > 100 µM | [6] > 100 µM | [7] > 100 µM | [8] > 100 µM | [9] > 100 µM | [10] > 100 µM | [11] > 100 µM | [12] > 100 µM | [13] > 100 µM | [14] > 100 µM | [16] > 100 µM | [17] > 100 µM | [20] 88.1 µM | [22] > 100 µM | [23] > 100 µM | [24] > 100 µM | [25] > 100 µM | [27] 57.7 µM | [28] > 100 µM | [29] > 100 µM | [32] > 100 µM | [33] > 100 µM | [34] > 100 µM | [35] > 100 µM | [36] > 100 µM | [37] > 100 µM | [38] > 100 µM | [39] > 100 µM | [40] > 100 µM | [41] > 100 µM | [42] > 100 µM | [44] > 100 µM | [45] > 100 µM | [46] > 100 µM | [47] > 100 µM | [48] > 100 µM | [59] > 100 µM | [51] > 100 µM | [52] > 100 µM | [53] > 100 µM | [54] > 100 µM | [55] > 100 µM | [56] > 100 µM | [58] > 100 µM
> 100 µM: [18]

CC(C)COC(=O)c1ccc(/N=C\c2ccc(/C=N/c3ccc(C(=O)OCC(C)C)cc3)cc2)cc1
> 100 µM: [18]
inactive: [1] > 100 µM | [2] > 100 µM | [5] > 100 µM | [6] > 100 µM | [7] > 100 µM | [8] > 100 µM | [9] > 100 µM | [10] > 100 µM | [11] > 100 µM | [12] > 100 µM | [13] > 100 µM | [14] > 100 µM | [15] > 100 µM | [16] > 100 µM | [17] > 100 µM | [19] > 100 µM | [20] > 100 µM | [22] > 100 µM | [23] > 100 µM | [25] > 100 µM | [26] > 100 µM | [27] 23.9 µM | [28] > 100 µM | [29] > 100 µM | [30] > 100 µM | [32] > 100 µM | [33] > 100 µM | [34] > 100 µM | [35] > 100 µM | [36] > 100 µM | [37] > 100 µM | [38] > 100 µM | [39] > 100 µM | [41] 96.6 µM | [42] > 100 µM | [44] > 100 µM | [45] > 100 µM | [47] > 100 µM | [48] > 100 µM | [49] > 100 µM | [50] > 100 µM | [59] > 100 µM | [51] > 100 µM | [52] > 100 µM | [53] > 100 µM | [54] > 100 µM | [55] > 100 µM | [56] > 100 µM | [57] > 100 µM | [58] > 100 µM

CCCCCCCCCCCC(=O)OCC(C[As](=O)(O)O)OC(=O)CCCCCCCCCCC (stereo unspecified)
8.39 µM: [18]
inactive: [1] 5.66 µM | [2] 15.1 µM | [3] 1.65 µM | [4] 3.72 µM | [60] 21.3 µM | [5] 5.09 µM | [6] 13.4 µM | [7] 18.1 µM | [8] 4.25 µM | [9] 8.81 µM | [10] 2.94 µM | [11] 15.8 µM | [12] 1.74 µM | [13] 7.89 µM | [14] 11.7 µM | [15] 16.2 µM | [61] 7.1 µM | [16] 2.61 µM | [17] 9.27 µM | [19] 6.95 µM | [20] 1.88 µM | [21] 5.15 µM | [22] 2.9 µM | [23] 8.2 µM | [24] 2.43 µM | [25] 2.96 µM | [26] 4.05 µM | [27] 12.4 µM | [62] 17.5 µM | [28] 12.1 µM | [29] 2.24 µM | [30] 4.76 µM | [31] 5.61 µM | [32] 3.96 µM | [33] 13.8 µM | [34] 10.4 µM | [35] 2.47 µM | [36] 3.28 µM | [37] 3.64 µM | [63] 3.46 µM | [38] 7.67 µM | [39] 2.48 µM | [64] 4.48 µM | [40] 7.74 µM | [41] 5.61 µM | [42] 14.3 µM | [43] 3.93 µM | [44] 1.54 µM | [45] 3.92 µM | [65] 4.54 µM | [46] 1.75 µM | [47] 7.62 µM | [66] 14.7 µM | [48] 5.32 µM | [49] 7.4 µM | [50] 7.52 µM | [67] 3.18 µM | [68] 3.93 µM | [51] 2.03 µM | [52] 2.82 µM | [53] 2.13 µM | [54] 7.1 µM | [69] 4.2 µM | [55] 1.97 µM | [56] 2.06 µM | [57] 26.9 µM | [58] 6.22 µM

CCCCCCCCCCCCCCCCCC(=O)NCC(COP(=O)([O-])OCC[N+](C)(C)C)OCC (stereo unspecified)
active: [1] 0.237 µM | [35] 0.137 µM | [36] 0.174 µM
inactive: [3] 18.5 µM | [13] 17.7 µM | [23] 19.2 µM | [25] 18.2 µM | [27] 19.5 µM | [30] 24.9 µM | [33] 19.4 µM | [39] 21.3 µM | [40] 21.9 µM | [41] 19.7 µM | [46] 17.7 µM | [50] 18.6 µM | [59] 22.2 µM
